Source: patent US5202315A, “Cephalosporin compounds” (Lucky, Ltd., priority 1989, dated 1993)
≈ marks a conversion by molar mass, not a printed value. Like-named read-outs stand apart in the source and are kept apart here.

Legend:
[1] = In-vivo absorbency (plasma concentrations & pharmacokinetic parameters); design: species or system SD rat (male); conditions: plasma, SD male rat, iv 20 mg/kg; for half-life: rat, iv, 20 mg/kg
Source text: The blood samples from the femoral vein of the rats were taken every hour after administration, and analyzed by bio-assay(agar well method).
Tested animal: SD male Rat (220~340 g)

[2] = system: Citrobacter freundii ATCC 8090; test: Antibacterial activity, MIC; assay type: cell-based; conditions: ATCC8090, ATCC 8090, agar two-fold dilution, 37° C., 20 hours, read-out: MIC
Outline: (§1)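 Values reflect agar dilution testing: Mueller-Hinton medium, two-fold compound series, 2 μl inoculum of 10^7 CFU/ml, 20 h incubation at 37 °C.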

[3] = system: Enterobacter aerogenes ATCC 29751; test: Antibacterial activity, MIC; assay type: cell-based; conditions: Klebsiella aerogenes, ATCC29751; ATCC 29751; agar two-fold dilution, 37° C., 20 hours; read-out: MIC
Outline: as §1

[4] = system: Klebsiella pneumoniae ATCC 10031; test: Antibacterial activity, MIC; assay type: cell-based; conditions: ATCC10031, ATCC 10031, agar two-fold dilution, 37° C., 20 hours, read-out: MIC
Outline: as §1

[5] = system: Enterobacter cloacae ATCC 27508; test: Antibacterial activity, MIC; assay type: cell-based; conditions: ATCC27508, ATCC 27508, agar two-fold dilution, 37° C., 20 hours, read-out: MIC
Outline: as §1

[6] = system: Bacillus cereus ATCC 11778; test: Antibacterial activity, MIC; assay type: cell-based; conditions: ATCC11778, ATCC 11778, agar two-fold dilution, 37° C., 20 hours, read-out: MIC
Outline: as §1

[7] = system: Pseudomonas aeruginosa ATCC 10145; test: Antibacterial activity, MIC; assay type: cell-based; conditions: ATCC10145, ATCC 10145, agar two-fold dilution, 37° C., 20 hours, read-out: MIC
Outline: as §1

[8] = system: Pseudomonas aeruginosa ATCC 25619; test: Antibacterial activity, MIC; assay type: cell-based; conditions: ATCC25619, ATCC 25619, agar two-fold dilution, 37° C., 20 hours, read-out: MIC
Outline: as §1

[9] = system: Micrococcus luteus ATCC 9341; test: Antibacterial activity, MIC; assay type: cell-based; conditions: ATCC9341, ATCC 9341, agar two-fold dilution, 37° C., 20 hours, read-out: MIC
Outline: as §1

[10] = system: Escherichia coli ATCC 10536; test: Antibacterial activity, MIC; assay type: cell-based; conditions: ATCC10536, agar two-fold dilution, 37° C., 20 hours
Outline: as §1

[11] = system: Shigella flexneri ATCC 11836; test: Antibacterial activity, MIC; assay type: cell-based; conditions: ATCC11836, agar two-fold dilution, 37° C., 20 hours
Outline: as §1

[12] = system: Proteus mirabilis ATCC 25933; test: Antibacterial activity, MIC; assay type: cell-based; conditions: ATCC25933, ATCC 25933, agar two-fold dilution, 37° C., 20 hours, read-out: MIC
Outline: as §1

[13] = system: Staphylococcus aureus ATCC 10537; test: Antibacterial activity, MIC; assay type: cell-based; conditions: ATCC10537, ATCC 10537, agar two-fold dilution, 37° C., 20 hours, read-out: MIC
Outline: as §1

[14] = system: Staphylococcus aureus ATCC 6538p; test: Antibacterial activity, MIC; assay type: cell-based; conditions: ATCC6538P, ATCC 6538p, agar two-fold dilution, 37° C., 20 hours, read-out: MIC
Outline: as §1

[15] = system: Providencia rettgeri ATCC 9250; test: Antibacterial activity, MIC; assay type: cell-based; conditions: ATCC9250, agar two-fold dilution, 37° C., 20 hours
Outline: as §1

[16] = system: Salmonella typhimurium ATCC 14028; test: Antibacterial activity, MIC; assay type: cell-based; conditions: Salmonella enterica; ATCC 14028; agar two-fold dilution, 37° C., 20 hours; read-out: MIC
Outline: as §1

[17] = system: Staphylococcus epidermidis ATCC 12228; test: Antibacterial activity, MIC; assay type: cell-based; conditions: ATCC12228, ATCC 12228, agar two-fold dilution, 37° C., 20 hours, read-out: MIC
Outline: as §1

[18] = system: Morganella morganii ATCC 8076h; test: Antibacterial activity, MIC; assay type: cell-based; conditions: ATCC8076H, agar two-fold dilution, 37° C., 20 hours
Outline: as §1

[19] = system: Acinetobacter calcoaceticus ATCC 15473; test: Antibacterial activity, MIC; assay type: cell-based; conditions: ATCC15473, ATCC 15473, agar two-fold dilution, 37° C., 20 hours, read-out: MIC
Outline: as §1

[20] = system: Streptococcus faecalis ATCC 29212; test: Antibacterial activity, MIC; assay type: cell-based; conditions: Enterococcus faecalis, ATCC29212; ATCC 29212; agar two-fold dilution, 37° C., 20 hours; read-out: MIC
Outline: as §1

[21] = system: Bacillus megaterium ATCC 9885; test: Antibacterial activity, MIC; assay type: cell-based; conditions: Priestia megaterium, ATCC9885; ATCC 9885; agar two-fold dilution, 37° C., 20 hours; read-out: MIC
Outline: as §1

[22] = system: Proteus vulgaris ATCC 6059; test: Antibacterial activity, MIC; assay type: cell-based; conditions: ATCC6059, ATCC 6059, agar two-fold dilution, 37° C., 20 hours, read-out: MIC
Outline: as §1

[23] = system: Shigella sonnei ATCC 11060; test: Antibacterial activity, MIC; assay type: cell-based; conditions: ATCC11060, ATCC 11060, agar two-fold dilution, 37° C., 20 hours, read-out: MIC
Outline: as §1

[24] = system: Pseudomonas aeruginosa ATCC 27853; test: Antibacterial activity, MIC; assay type: cell-based; conditions: ATCC27853, ATCC 27853, agar two-fold dilution, 37° C., 20 hours, read-out: MIC
Outline: as §1

[25] = system: Escherichia coli ATCC 25922; test: Antibacterial activity, MIC; assay type: cell-based; conditions: ATCC25922, agar two-fold dilution, 37° C., 20 hours
Outline: as §1

[26] = system: Serratia marcescens ATCC 27117; test: Antibacterial activity, MIC; assay type: cell-based; conditions: ATCC27117, ATCC 27117, agar two-fold dilution, 37° C., 20 hours, read-out: MIC
Outline: as §1

[27] = In-vivo absorbency (plasma concentrations & pharmacokinetic parameters); design: species or system SD rat (male); conditions: plasma, SD male rat, iv 20 mg/kg, read-out: Plasma Conc.
[28] = system: Staphylococcus aureus methicillin resistant; test: Antibacterial activity against clinically isolated strains, MIC; assay type: cell-based; conditions: methicillin resistant, 7 clinical isolates, broth microdilution test
[29] = system: Klebsiella pneumoniae; test: as above; assay type: cell-based; conditions: 10 clinical isolates, broth microdilution test
[30] = system: Pseudomonas aeruginosa; test: as above; assay type: cell-based; conditions: 54 clinical isolates, broth microdilution test
[31] = system: Staphylococcus aureus methicillin susceptible; test: as above; assay type: cell-based; conditions: methicillin susceptible, 42 clinical isolates, broth microdilution test
[32] = system: Escherichia coli; test: as above; assay type: cell-based; conditions: 38 clinical isolates, broth microdilution test

Structure (SMILES)	MIC [2]	MIC [3]	MIC [4]	MIC [5]	MIC [6]	MIC [7]	MIC [8]	MIC [9]	MIC [10]	MIC [11]	MIC [12]	MIC [13]	MIC [14]	MIC [15]	MIC [16]	MIC [17]	MIC [18]	MIC [19]	MIC [20]	MIC [21]	also measured
CC[n+]1c(N)cc(N)nc1SCC1=C(C(=O)[O-])N2C(=O)C(NC(=O)/C(=N\OCC(=O)O)c3csc(N)n3)C2SC1 (centres unmarked) [Compound I-8]	0.031 µg/mL (≈ 0.0508 µM)	1 µg/mL (≈ 1.64 µM)	0.016 µg/mL (≈ 0.0262 µM)	≤ 8 ng/mL	64 µg/mL (≈ 105 µM)	4 µg/mL (≈ 6.56 µM)	2 µg/mL (≈ 3.28 µM)	0.13 µg/mL (≈ 0.213 µM)	0.031 µg/mL (≈ 0.0508 µM)	0.016 µg/mL (≈ 0.0262 µM)	0.031 µg/mL (≈ 0.0508 µM)	2 µg/mL (≈ 3.28 µM)	4 µg/mL (≈ 6.56 µM)	0.016 µg/mL (≈ 0.0262 µM)	0.063 µg/mL (≈ 0.103 µM)	1 µg/mL (≈ 1.64 µM)	≤ 8 ng/mL	8 µg/mL (≈ 13.1 µM)	> 128 µg/mL	0.5 µg/mL (≈ 0.82 µM)	concentration at 1 h ([1]; 60 min, read-out: Plasma Conc.): 8700 ng/mL; concentration at 2 h ([1]; 120 min, read-out: Plasma Conc.): 2700 ng/mL; AUC ([1]; two compartment model): 43400 ng·h/mL; half-life ([1]; two compartment model, read-out: T1/2 (α)): 6 min; half-life ([1]; two compartment model, read-out: T1/2 (β)): 32 min; MIC [22]: 0.016 µg/mL (≈ 0.0262 µM); MIC [23]: 0.031 µg/mL (≈ 0.0508 µM); MIC [24]: 2 µg/mL (≈ 3.28 µM); MIC [25]: 0.031 µg/mL (≈ 0.0508 µM); MIC [26]: 0.031 µg/mL (≈ 0.0508 µM); concentration at 1 min ([27]; 1 min): 121 µg/mL; concentration at 2.5 min ([27]; 2.5 min): 92 µg/mL; concentration at 5 min ([27]; 5 min): 64 µg/mL; concentration at 10 min ([27]; 10 min): 48000 ng/mL; concentration at 20 min ([27]; 20 min): 36000 ng/mL; concentration at 40 min ([27]; 40 min): 15000 ng/mL
CC(O/N=C(\C(=O)NC1C(=O)N2C(C(=O)[O-])=C(CSc3nc(N)cc(N)[n+]3N)CSC12)c1csc(N)n1)C(=O)O (centres unmarked) [Compound I-14]	0.031 µg/mL (≈ 0.0508 µM)	0.5 µg/mL (≈ 0.819 µM)	0.031 µg/mL (≈ 0.0508 µM)	≤ 8 ng/mL	64 µg/mL (≈ 105 µM)	2 µg/mL (≈ 3.28 µM)	1 µg/mL (≈ 1.64 µM)	0.5 µg/mL (≈ 0.819 µM)	0.031 µg/mL (≈ 0.0508 µM)	0.031 µg/mL (≈ 0.0508 µM)	0.031 µg/mL (≈ 0.0508 µM)	2 µg/mL (≈ 3.28 µM)	4 µg/mL (≈ 6.55 µM)	≤ 0.008 µg/mL	0.13 µg/mL (≈ 0.213 µM)	1 µg/mL (≈ 1.64 µM)	≤ 8 ng/mL	2 µg/mL (≈ 3.28 µM)	> 128 µg/mL	0.5 µg/mL (≈ 0.819 µM)	MIC50 [28]: > 128 µg/mL; MIC90 ([28]; read-out: MIC 90%): > 128 µg/mL; MIC50 [29]: 0.031 µg/mL (≈ 0.0508 µM); MIC90 ([29]; read-out: MIC 90%): 0.063 µg/mL (≈ 0.103 µM); MIC50 [30]: 1 µg/mL (≈ 1.64 µM); MIC90 ([30]; read-out: MIC 90%): 4 µg/mL (≈ 6.55 µM); MIC [22]: 0.031 µg/mL (≈ 0.0508 µM); MIC [23]: 0.016 µg/mL (≈ 0.0262 µM); MIC [24]: 1 µg/mL (≈ 1.64 µM); MIC [25]: 0.031 µg/mL (≈ 0.0508 µM); MIC [26]: 0.031 µg/mL (≈ 0.0508 µM); MIC50 [31]: 4 µg/mL (≈ 6.55 µM); MIC90 ([31]; read-out: MIC 90%): 4 µg/mL (≈ 6.55 µM); MIC50 [32]: 0.031 µg/mL (≈ 0.0508 µM); MIC90 [32]: 0.063 µg/mL (≈ 0.103 µM)
